Several values for one entry are separate records, joined by “and”; a condition that tells them apart may be missing. Equal values may be shown once. Records with an inconclusive call do not appear.
Test system: CD8F1 mice, subcutaneous mammary adenocarcinoma, T/C%
Assay: NCI In Vivo Anticancer Drug Screen. Data for tumor model Mammary Adenocarcinoma CD8F1 (subcutaneous) in CD8F1
Settings: higher = larger tumour
Method in brief: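 Mice carrying transplanted tumors received test compound, and survival or tumor size was recorded. Each value is the treated-group measurement divided by the corresponding measurement in vehicle-dosed controls.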

[1] = endpoint: median tumor weight change, dose: 125.0 mg/kg/injection, schedule: Q01DX001 (ip), vehicle: suspension in saline
[2] = endpoint: median tumor weight change, dose: 250.0 mg/kg/injection, schedule: Q01DX001 (ip), vehicle: suspension in saline
[3] = endpoint: median tumor weight (est.), dose: 25.0 mg/kg/injection, schedule: Q07DX005 (ip), vehicle: Klucel (hydroxypropylcellulose) (HPC)
[4] = endpoint: median tumor weight (est.), dose: 50.0 mg/kg/injection, schedule: Q07DX005 (ip), vehicle: Klucel (hydroxypropylcellulose) (HPC)
[5] = endpoint: median tumor weight (est.), dose: 100.0 mg/kg/injection, schedule: Q07DX005 (ip), vehicle: Klucel (hydroxypropylcellulose) (HPC)
[6] = endpoint: median tumor weight (est.), dose: 200.0 mg/kg/injection, schedule: Q07DX005 (ip), vehicle: Klucel (hydroxypropylcellulose) (HPC)
[7] = endpoint: median tumor weight change, dose: 500.0 mg/kg/injection, schedule: Q01DX001 (ip), vehicle: saline
[8] = endpoint: median tumor weight change, dose: 1000.0 mg/kg/injection, schedule: Q01DX001 (ip), vehicle: saline

Nc1nc(N)c2c(Cl)c(CNc3ccc(Cl)c(Cl)c3)ccc2n1
T/C (endpoint: median tumor weight (est.), dose: 6.25 mg/kg/injection, schedule: Q07DX005 (ip), vehicle: saline with Tween-80): 55 % of control
T/C (endpoint: median tumor weight (est.), dose: 12.5 mg/kg/injection, schedule: Q07DX005 (ip), vehicle: saline with Tween-80): 78 % of control
T/C (endpoint: median tumor weight (est.), dose: 25.0 mg/kg/injection, schedule: Q07DX005 (ip), vehicle: saline with Tween-80): 82 % of control
T/C (endpoint: median tumor weight (est.), dose: 50.0 mg/kg/injection, schedule: Q07DX005 (ip), vehicle: saline with Tween-80): 8 % of control
T/C (endpoint: median tumor weight (est.), dose: 100.0 mg/kg/injection, schedule: Q07DX005 (ip), vehicle: saline with Tween-80): 27 % of control

COC1C(OC(=O)/C=C/C=C/C=C/C=C/C(=O)O)CCC2(CO2)C1C1(C)OC1CC=C(C)C (stereo unspecified)
T/C (endpoint: median tumor weight (est.), dose: 25.0 mg/kg/injection, schedule: Q07DX005 (ip), vehicle: suspension in saline): 102 % of control
T/C (endpoint: median tumor weight (est.), dose: 50.0 mg/kg/injection, schedule: Q07DX005 (ip), vehicle: suspension in saline): 106 % of control
T/C (endpoint: median tumor weight (est.), dose: 100.0 mg/kg/injection, schedule: Q07DX005 (ip), vehicle: suspension in saline): 91 % of control
T/C (endpoint: median tumor weight (est.), dose: 200.0 mg/kg/injection, schedule: Q07DX005 (ip), vehicle: suspension in saline): 94 % of control
T/C [1]: 85 % of control
T/C [2]: 56 % of control
T/C (endpoint: median tumor weight change, dose: 500.0 mg/kg/injection, schedule: Q01DX001 (ip), vehicle: suspension in saline): 58 % of control

Nc1nncs1
T/C [3]: 72 % of control and 85 % of control
T/C [4]: 44 % of control and 62 % of control
T/C [5]: 34 % of control
T/C (endpoint: median tumor weight (est.), dose: 400.0 mg/kg/injection, schedule: Q07DX005 (ip), vehicle: Klucel (hydroxypropylcellulose) (HPC)): 24 % of control and 49 % of control

CS(=O)(=O)CS(=O)(=O)OCCCl
T/C [1]: 56 % of control
T/C [2]: 68 % of control

COc1cc(NCCCCCCCNC(C)C)c2nccc(C)c2c1
T/C (endpoint: median tumor weight change, dose: 31.25 mg/kg/injection, schedule: Q01DX001 (ip), vehicle: saline): 70 % of control
T/C (endpoint: median tumor weight change, dose: 62.5 mg/kg/injection, schedule: Q01DX001 (ip), vehicle: saline): 72 % of control

O=C(C/C(=N\C(=S)Nc1cc(C(F)(F)F)ccc1Cl)NO)N1CCCC1
T/C (endpoint: median tumor weight change, dose: 62.5 mg/kg/injection, schedule: Q01DX001 (ip), vehicle: saline with Tween-80): 76 % of control
T/C (endpoint: median tumor weight change, dose: 125.0 mg/kg/injection, schedule: Q01DX001 (ip), vehicle: saline with Tween-80): 83 % of control and 90 % of control

COc1cc(OC)c(OC)cc1/C=C\c1ccnc2ccccc12
T/C [4]: 86 % of control
T/C [5]: 55 % of control
T/C [6]: 78 % of control

CC(Cc1ccc(O)c(O)c1)C(C)Cc1ccc(O)c(O)c1 (stereo unspecified)
T/C [7]: 123 % of control
T/C [8]: 57 % of control

Cc1ccccc1N(CC1CO1)CC1CO1 (stereo unspecified)
T/C (endpoint: median tumor weight (est.), dose: 50.0 mg/kg/injection, schedule: Q07DX005 (ip), vehicle: saline): 74 % of control
T/C (endpoint: median tumor weight (est.), dose: 100.0 mg/kg/injection, schedule: Q07DX005 (ip), vehicle: saline): 79 % of control
T/C (endpoint: median tumor weight (est.), dose: 200.0 mg/kg/injection, schedule: Q07DX005 (ip), vehicle: saline): 105 % of control
T/C (endpoint: median tumor weight (est.), dose: 400.0 mg/kg/injection, schedule: Q07DX005 (ip), vehicle: saline): 63 % of control

O=[N+]([O-])/C=C\c1ccc2c(c1)OCO2
T/C (endpoint: median tumor weight (est.), dose: 6.25 mg/kg/injection, schedule: Q07DX005 (ip), vehicle: Klucel (hydroxypropylcellulose) (HPC)): 102 % of control
T/C (endpoint: median tumor weight (est.), dose: 12.5 mg/kg/injection, schedule: Q07DX005 (ip), vehicle: Klucel (hydroxypropylcellulose) (HPC)): 59 % of control
T/C [3]: 86 % of control
T/C [4]: 60 % of control
T/C [5]: 55 % of control
T/C [6]: 83 % of control

OCCCN1CCCCC1CO (stereo unspecified)
T/C (endpoint: median tumor weight change, dose: 125.0 mg/kg/injection, schedule: Q01DX001 (ip), vehicle: saline): 78 % of control
T/C (endpoint: median tumor weight change, dose: 250.0 mg/kg/injection, schedule: Q01DX001 (ip), vehicle: saline): 103 % of control
T/C [7]: 105 % of control
T/C [8]: 103 % of control

Source: PubChem BioAssay AID220 (DTP/NCI, 2004)
